Data set [1] concerns the target T1, E. coli β-galactosidase (LacZ) (Escherichia coli, UniProt P00722). The format is biochemical.
Experimental: In the enzyme inhibition assay, the rate of catalysis is determined by using a non-fluorescent substrate for LacZ, fluorescein mono-β-D-galactoside (FMG) (FMG), and measuring the appearance of the fluorescent product, fluorescein (excitation 488 nm, emission 514 nm). All components of the LacZ inhibition assay are dissolved in assay buffer (10 mm MgCl2, 50 mM NaCl, 1 mM DTT, 100 μg/ml BSA, 10 mM Tris-HCl, pH 7.9.
Leading into each droplet forming module (FIG. 15) are two Teflon tubes leading from syringe pumps. The channels leading from each tube merge to create a single flow before entering the droplet forming module. The two syringes feeding into the first droplet forming module contain, (a) 50 μM PETG in assay buffer, and (b), assay buffer. The two syringes feeding into the second droplet forming module contain, (c) 100 nM LacZ in assay buffer and (d), assay buffer. The two syringes feeding into the third droplet forming module contain, (e) 5 mM FMG in assay buffer, and (f), assay buffer. The final concentration of each component in each droplet is independently controllable by adjusting relative flow rates of each component and buffer solution while maintaining a constant combined flow rate from both syringes.
The first droplet fusion mixes the inhibitor (PETG) with the enzyme (LacZ). After the combined droplet has spent two minutes in a delay line it is fused with a third droplet containing the fluorogenic enzyme substrate (FMG). Finally, after all the components are mixed the reaction is observed by measuring fluorescence of individual droplets or by integrating fluorescent light from droplets with the same concentration of each component during 10-second exposure time at multiple points in the second 10 min long delay line. Each fluorescence intensity value at different positions is proportional to the amount of product at different reaction times. Rate of product formation is linear during initial reaction time and initial rate (ν) can be determined from linear fitting. […]
Data set [2] addresses T1, E. coli β-galactosidase (LacZ). Particulars: Huang, 1991, cited from earlier work.
The nature of data set [3]: Compartmentalisation of small molecules in water-in-fluorocarbon emulsions (epifluorescence microscopy). The data set is classed as physicochemical. Particulars: water-in-perfluorooctyl bromide emulsions mixed by vortexing, imaged after 24 hours. The procedure: FIG. 19. Compartmentalisation of small molecules in water-in-fluorocarbon emulsions. Water-in-perfluorooctyl bromide emulsions were made containing texas red (1 mM) and calcein ([…] in the aqueous phase by homogenisation as described in example 9. The two emulsions were mixed by vortexing and imaged by epifluorescence microscopy after 24 hours. No exchange of texas-red (red fluorescence) and calcein (green fluorescence) between microdroplets could be observed.
Water-in-fluorocarbon emulsions containing 95% (v/v) perfluorooctyl bromide, 5% (v/v) phosphate buffered saline containing the molecule of interest in solution, and 2% (w/v) C8F17C11H22OP(O)[N(CH2CH2)2O]2 (F8H1DMP) as surfactant were formed essentially as (Sadtler et al., 1996) by extrusion (15 times) through 14 μm filters (Osmonics) or by homogenising for 5 min at 25,000 r.p.m. using an Ultra-Turrax T8 Homogenizer (IKA) with a 5 mm dispersing tool. Emulsions were made containing a series of small fluorescent molecules dissolved in the aqueous phase at concentrations from […] to 2 mM. These molecules, including calcein, texas red, fluorescein, coumarin 102, 7-hydroxycoumarin-3-carboxylic acid and 7-diethylamino-4-methyl coumarin (coumarin 1), had molecular weights from 203 to 625 Da and Log P values—calculated using SRC's Log Kow/KowWin Program (Meylan and Howard, 1995)—ranging from −0.49 to 4.09. […]

A further data set deals with T2, PTP1B (Homo sapiens, UniProt P18031).
T2 sequence (P18031 1-435): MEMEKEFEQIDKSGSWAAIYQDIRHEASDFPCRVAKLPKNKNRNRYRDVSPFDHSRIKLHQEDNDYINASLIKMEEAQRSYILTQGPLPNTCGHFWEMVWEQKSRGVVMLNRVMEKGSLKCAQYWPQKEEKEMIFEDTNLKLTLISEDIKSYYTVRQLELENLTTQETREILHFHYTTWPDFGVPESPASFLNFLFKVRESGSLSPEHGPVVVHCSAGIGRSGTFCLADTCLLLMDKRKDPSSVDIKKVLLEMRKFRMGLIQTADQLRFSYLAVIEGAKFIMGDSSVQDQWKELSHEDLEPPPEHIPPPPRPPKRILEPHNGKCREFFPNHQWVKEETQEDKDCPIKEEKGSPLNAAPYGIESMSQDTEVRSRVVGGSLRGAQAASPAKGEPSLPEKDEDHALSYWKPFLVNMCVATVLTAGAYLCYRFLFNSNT
Particulars: Johnson et al., 2002; cited from earlier work.

Data set [4] concerns the target T3, human recombinant PTP1B, residues 1-322 (Homo sapiens, UniProt P18031).
T3 construct: human recombinant PTP1B, residues 1-322; purchased Biomol Research Laboratories, Inc
T3 sequence (P18031 1-322): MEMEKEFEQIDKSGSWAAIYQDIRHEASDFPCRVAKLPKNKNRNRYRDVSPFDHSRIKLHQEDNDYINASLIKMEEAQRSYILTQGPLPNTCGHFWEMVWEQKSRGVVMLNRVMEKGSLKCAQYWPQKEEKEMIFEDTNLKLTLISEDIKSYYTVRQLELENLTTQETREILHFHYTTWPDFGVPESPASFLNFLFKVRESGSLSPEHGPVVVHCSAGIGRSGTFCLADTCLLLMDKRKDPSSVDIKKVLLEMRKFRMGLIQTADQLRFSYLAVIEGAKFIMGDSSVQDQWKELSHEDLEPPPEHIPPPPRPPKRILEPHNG
The experiment in a line: Screening for PTP1B inhibitors using microcapsules in a microfluidic system (DiFMUP fluorescence). The format is biochemical. Particulars: 100 μM compound solution, PTP1B 50 mU/ml, substrate DiFMUP, excitation/emission 358/452 nm. The procedure:
All water-soluble reagents are dissolved in (25 mM HEPES, pH 7.4, 125 mM NaCl, 1 mM EDTA), a buffer compatible with PTP1B activity. […] Each microcapsule containing target enzyme is fused with a microcapsule containing compound 2 or a microcapsule containing hydrocinnamic acid. Microcapsules containing either compound 2 or hydrocinnamic acid can be formed by switching between injection with syringes containing compound 2 and hydrocinnamic acid.
After microcapsule fusion the contents are rapidly mixed. After this point the microcapsules are run for up to 1 min through a 60 cm long microchannel (to allow inhibitor binding). This microchannel is then merged with a second microchannel containing, aqueous microcapsules containing the fluorogenic PTP1B substrate 6,8-difluoro-4-methylumbelliferyl phosphate (DiFMUP) (Molecular Probes) in 25 mM HEPES, pH 7.4, 125 mM NaCl, 1 mM EDTA and the microcapsules fused pairwise. The fused microcapsules are then run for up to 2 min through a 60 cm long microchannel. Fluorescence of the microcapsules due to production of DiFMU (excitation/emmission maxima 358/452 nm; blue fluorescence) is measured.

The mark [5] stands for this setting: 30 nM LacZ, 0 to 13 μM PETG, 10 to 700 μM FMG.

Results on five molecules are retold here after patent US9498759B2, “Compartmentalized screening by microfluidic control” (President and Fellows of Harvard College, priority 2004, dated 2016).

Bounds are passed on as bounds.

T1 sequence (P00722 2-1024): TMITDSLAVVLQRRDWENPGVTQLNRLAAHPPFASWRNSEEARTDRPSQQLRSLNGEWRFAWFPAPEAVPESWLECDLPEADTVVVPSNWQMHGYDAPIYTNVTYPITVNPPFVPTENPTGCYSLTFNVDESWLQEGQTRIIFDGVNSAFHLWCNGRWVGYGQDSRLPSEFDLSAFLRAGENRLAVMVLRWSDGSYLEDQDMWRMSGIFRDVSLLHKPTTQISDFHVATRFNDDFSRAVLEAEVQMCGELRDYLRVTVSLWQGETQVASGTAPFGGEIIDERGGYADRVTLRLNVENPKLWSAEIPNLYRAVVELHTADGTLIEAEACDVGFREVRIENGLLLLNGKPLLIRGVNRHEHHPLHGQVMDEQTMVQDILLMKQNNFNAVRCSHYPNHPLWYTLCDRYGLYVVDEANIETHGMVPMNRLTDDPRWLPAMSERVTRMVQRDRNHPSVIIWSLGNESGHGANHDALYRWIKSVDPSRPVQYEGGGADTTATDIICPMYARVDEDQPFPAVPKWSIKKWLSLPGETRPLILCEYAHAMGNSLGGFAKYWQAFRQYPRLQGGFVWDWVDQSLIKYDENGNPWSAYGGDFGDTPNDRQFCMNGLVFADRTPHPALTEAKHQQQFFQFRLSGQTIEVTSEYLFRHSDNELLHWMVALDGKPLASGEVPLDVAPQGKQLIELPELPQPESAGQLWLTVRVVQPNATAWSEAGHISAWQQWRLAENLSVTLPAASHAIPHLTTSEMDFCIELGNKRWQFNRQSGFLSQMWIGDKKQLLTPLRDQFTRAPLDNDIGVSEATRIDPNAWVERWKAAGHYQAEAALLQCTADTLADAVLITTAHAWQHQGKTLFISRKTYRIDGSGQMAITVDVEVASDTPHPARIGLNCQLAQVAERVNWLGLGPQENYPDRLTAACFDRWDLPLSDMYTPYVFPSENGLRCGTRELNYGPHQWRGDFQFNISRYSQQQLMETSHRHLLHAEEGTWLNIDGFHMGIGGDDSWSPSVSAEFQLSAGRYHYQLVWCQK

Broadly, the Km is the substrate concentration at which the rate is half of its maximum. In the case of `O=C1OC2(c3ccc(O)cc3Oc3cc(O[C@@H]4O[C@H](CO)[C@H](O)[C@H](O)[C@H]4O)ccc32)c2ccccc21` (stereo partly drawn) [FMG, fluorescein mono-β-D-galactoside], in data set [1] (setting [5]), the “KM of FMG for LacZ determined in fused microcapsules, deviation from previously published value” is ≤ 20%. Also, the Michaelis constant (Km) in data set [2] (read-out: KM of FMG for LacZ, previously published value) is 118 µM.

Broadly, the Ki is a dissociation constant, usually derived from enzyme kinetics or from competition with a known ligand. With `OCC1OC(SCCc2ccccc2)C(O)C(O)C1O` [PETG, phenylethyl β-D-thiogalactopyranoside], the “Ki of PETG for LacZ determined in fused microcapsules” value in data set [1] (setting [5]) was “within the range of the previously published value”. The Mode of inhibition entry in data set [1] (Lineweaver-Burk plot, same y-intercept at different PETG concentrations) was “competitive”. Besides, the inhibition constant Ki in data set [2] (read-out: Ki of PETG for LacZ, previously published value) is 0.98 µM.

For `O=C(O)CN(CC(=O)O)Cc1cc2c(cc1O)Oc1cc(O)c(CN(CC(=O)O)CC(=O)O)cc1C21OC(=O)c2ccccc21` [calcein], the Exchange between microdroplets/compartments result in data set [3] is reported as “No exchange”.

Consider `O=C(O)CCc1ccccc1` [hydrocinnamic acid], for which the “PTP1B inhibitor status / relative potency” value on PTP1B is listed as “not a PTP1B inhibitor”. Also, the “Fluorescence of the microcapsules due to production of DiFMU (blue fluorescence)” value in data set [4] was “exhibiting blue fluorescence”.

texas red: in data set [3], the Exchange between microdroplets/compartments entry is recorded as “No exchange”.
